What was measured:
Type in all cases: physicochemical
[1] = Slurry experiments in aqueous isopropanol, form checked by PXRD; conditions: for form found by PXRD after slurry: aqueous isopropanol 3:1, 0° C.
Description: Form A and Form B of avapritinib were each slurried in aqueous isopropanol [4 mL, 3:1 (volume:volume)] at 0° C., 20° C. and 40° C., respectively. Samples were taken after 1 and 5 days and investigated by powder-X-ray diffraction.

[2] = Thermogravimetric analysis (TGA); conditions: for TGA mass loss: 10 K/min
Description: TGA was performed on a Mettler TGA/DSC 1 instrument. The samples (8.29 mg Form A, 8.11 mg Form B, 4.12 mg Form Hy1) were each weighed into a 100 microliter aluminum pan closed with an aluminum lid. The lid was automatically pierced at the beginning of the measurement. The samples were each heated from 25 to 250° C. at a rate of 10 K/min. Nitrogen (purge rate 50 mL/min) was used as purge gas.

[3] = Gravimetric moisture sorption (GMS); conditions: for mass change during the sorption cycle: GMS, (25±0.1)° C.; for solid form by powder X-ray diffraction after the GMS experiment: after full sorption/desorption cycle 0-90% RH; for hygroscopicity: judged from GMS mass change
Description: Moisture sorption isotherms were recorded along with other samples with an SPSx-1μ moisture sorption analyzer (ProUmid, Ulm). The measurement cycle was started at ambient relative humidity (RH) of 25% (Form A) or 40% (Form B and Form Hy1). Relative humidity was then decreased to 5% in 5% steps, followed by a further decrease to 3% and to 0%. Afterwards RH was increased from 0% to 90% in a sorption cycle and decreased to 0% in a desorption cycle in 5% steps. Finally, the RH was increased to a relative humidity of 25% (Form A) or 40% (Form B and Form Hy1) in 5% steps. The time per step was set to a minimum of 2 hours and a maximum of 6 hours. If an equilibrium condition with a constant mass of +0.01% within 1 hour was reached before the maximum time for all examined samples the sequential humidity step was applied before the maximum time of 6 hours. If no equilibrium was achieved the consecutive humidity step was applied after the maximum time of 6 hours. The temperature was (25±0.1)° C.

[4] = Storage stability under various stress conditions, form checked by PXRD; conditions: 6 months
Description: Avapritinib Form A, Form B and hydrate Form Hy1 were each subjected to the various stress conditions listed in Table 8 for 6 months and the samples were investigated by powder X-ray diffraction.

Row | stability in slurry experiments ([1]; all applied conditions (0, 20, 40° C.; 1 and 5 days)) | thermodynamic relationship of Form A and Form B ([1]; from slurry experiments and DSC at 1 K/min) | TGA mass loss ([2]; up to about 190° C.) | mass change during the sorption cycle ([3]; 0-90% RH) | solid form by powder X-ray diffraction after the GMS experiment [3] | hygroscopicity [3] | conversion in slurry experiments ([1]; 0° C.) | conversion in slurry experiments ([1]; 20° C. and 40° C., already after 1 day) | form found by PXRD after slurry ([1]; 1 day) | form found by PXRD after slurry ([1]; 5 days) | TGA mass loss ([2]; up to about 180° C.) | form found by PXRD after stress test ([4]; 25° C./60% RH) | form found by PXRD after stress test ([4]; 30° C./65% RH) | form found by PXRD after stress test ([4]; 40° C./75% RH) | form found by PXRD after stress test ([4]; RT/97% RH) | TGA mass loss ([2]; from beginning of measurement until about 110° C.) | water corresponding to TGA mass loss ([2]; until about 110° C.) | mass change during the sorption cycle ([3]; 10-90% RH) | Structure (SMILES)
1 | remained stable | the stable form below its melting point | about 0.3 weight % | about 0.1 weight % | Form A | non-hygroscopic | – | – | – | – | – | – | – | – | – | – | – | – | Cn1cc(-c2cc3c(N4CCN(c5ncc([C@@](C)(N)c6ccc(F)cc6)cn5)CC4)ncnn3c2)cn1 [Form A, (1S)-1-(4-fluorophenyl)-1-(2-[4-[6-(1-methyl-1H-pyrazol-4-yl)pyrrolo[2,1-f][1,2,4]triazin-4-yl]piperazin-1-yl]pyrimidin-5-yl)ethan-1-amine]
2 | – | – | – | about 0.3 weight % | Form B | only slightly hygroscopic | partially converted to Form A | fully converted to Form A | B + A | A + B | about 0.3 weight-% | – | – | – | – | – | – | – | Cn1cc(-c2cc3c(N4CCN(c5ncc([C@@](C)(N)c6ccc(F)cc6)cn5)CC4)ncnn3c2)cn1 [Form B, (1S)-1-(4-fluorophenyl)-1-(2-[4-[6-(1-methyl-1H-pyrazol-4-yl)pyrrolo[2,1-f][1,2,4]triazin-4-yl]piperazin-1-yl]pyrimidin-5-yl)ethan-1-amine]
3 | – | – | – | – | Form Hy1 | only slightly hygroscopic | – | – | – | – | – | Hy1 | Hy1 | Hy1 | Hy1 | 3.5 weight-% | approximately 1 mol equivalent | about 1.4 weight % | Cn1cc(-c2cc3c(N4CCN(c5ncc([C@@](C)(N)c6ccc(F)cc6)cn5)CC4)ncnn3c2)cn1 [Form Hy1]
